Measurements: patent publication US20210238173A1, “MITOGEN-ACTIVATED PROTEIN KINASE KINASE 7 INHIBITORS” (Yeda Research and Development Co. Ltd., priority 2018, published 2021)
pEC50: −log10 of the molar value. Where “and” joins values, the source holds several entries; their conditions need not be identical. Equal values may be shown once.

Tests used:
FLT4 (VEGFR3) = FLT4 (VEGFR3) (Homo sapiens, UniProt P35916); assay: Kinome selectivity screen FLT4; assay type: biochemical; details: 1 μM compound
Procedure: (§1) Kinome Selectivity Screen:
(§2) Kinase selectivity was assessed using the Life Technologies SelectScreen Kinase Profiling Service in a custom panel of 76 kinases selected to provide broad representative coverage of all kinase families. Kinase activity assays employed either the Z′-LYTE or Adapta assay technologies with ATP concentrations at or near the KM, ATP for each kinase and a test compound concentration of 1 μM.

MKK7 = biological target: T1, MKK7 (Homo sapiens, UniProt O14733); assay: Intact protein mass spectrometry covalent labeling; assay type: binding; details: 4° C., molecule 20 μM, protein 10 μM
T1 construct: MKK7 isoform 1 (103-426 residues) with a C-terminal 6-His tag; 6-His (C); made in house; host or cells: E. coli Rosetta2 (DE3) pLysS
T1 sequence (O14733 103-426 isoform O14733-3): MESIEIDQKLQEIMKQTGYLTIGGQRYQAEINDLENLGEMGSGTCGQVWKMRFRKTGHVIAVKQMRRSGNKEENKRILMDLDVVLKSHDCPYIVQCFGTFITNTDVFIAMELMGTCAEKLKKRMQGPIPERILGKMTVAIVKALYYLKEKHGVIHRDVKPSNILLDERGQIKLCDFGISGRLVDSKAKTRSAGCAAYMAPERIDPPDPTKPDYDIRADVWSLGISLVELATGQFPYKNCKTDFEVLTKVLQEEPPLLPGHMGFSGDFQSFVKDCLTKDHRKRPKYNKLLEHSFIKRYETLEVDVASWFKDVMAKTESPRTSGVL
Procedure: Intact Protein Mass Spectrometry:
Samples were injected after indicated incubation times into LC/MS (Waters ACUITY UPLC class H), in positive ion mode using electrospray ionization. C4 column (300 Å, 1.7 μM, […]×100 mm) was held at 40° C., and the autosampler at 10° C. Desolvation temperature was 500° C. with flow rate of 1000 liter/hour. The voltage used were 0.69 kV for the capillary and 46 V for the cone. Spectra were deconvoluted using MaxEnt1 software.
After 1 hour or 16 hours incubation at 4° C.

[1] = Metabolic stability in monkey liver microsomes; assay type: in vitro ADME
Description: (§3) A reference compound, REF1250, was used in this study: […]

[2] = Metabolic stability in rat liver microsomes; assay type: in vitro ADME; details: for half-life: rat, liver microsomes
Description: as §3

CLK1 = CLK1 (Homo sapiens, UniProt P49759); assay: Kinome selectivity screen CLK1; assay type: biochemical; details: 1 μM compound
Procedure: as §1, §2

TEK (Tie2) = TEK (Tie2) (Homo sapiens, UniProt Q02763); assay: Kinome selectivity screen TEK; assay type: biochemical; details: 1 μM compound
Procedure: as §1, §2

MARK1 (MARK) = MARK1 (MARK) (Homo sapiens, UniProt Q9P0L2); assay: Kinome selectivity screen MARK1; assay type: biochemical; details: 1 μM compound
Procedure: as §1, §2

BTK = BTK (Homo sapiens, UniProt Q06187); assay: Kinome selectivity screen BTK; assay type: biochemical; details: 1 μM compound
Procedure: as §1, §2

DCAMKL2 (DCK2) = DCAMKL2 (DCK2) (Homo sapiens, UniProt Q8N568); assay: Kinome selectivity screen DCAMKL2; assay type: biochemical; details: 1 μM compound
Procedure: as §1, §2

[3] = biological target: PIK3CA/PIK3R1 (p110 alpha/p85 alpha) (Homo sapiens, UniProt P42336); assay: Kinome selectivity screen PIK3CA/PIK3R1; assay type: biochemical; details: 1 μM compound
Procedure: as §1, §2

EGFR (ErbB1) = EGFR (ErbB1) (Homo sapiens, UniProt P00533); assay: Kinome selectivity screen EGFR; assay type: biochemical; details: 1 μM compound
Procedure: as §1, §2

PRKCE (PKC epsilon) = PRKCE (PKC epsilon) (Homo sapiens, UniProt Q02156); assay: Kinome selectivity screen PRKCE; assay type: biochemical; details: 1 μM compound
Procedure: as §1, §2

pJNK in HEK293 cells = assay: In-cell western (ICW) pJNK inhibition in HEK293; assay type: cell-based; details: 2 h pre-incubation, sorbitol stimulation
Procedure: HEK293, Beas2B and 3T3 cells were plated 24 hours before procedure on 384 well clear bottom black flat plates (Corning) pre-coated with Fibronectin (Sigma) diluted in PBS to a concentration of 5 μg/ml 45 minutes prior to cells introduction. Cells were plated using Multidrop™ Combi reagent dispenser (Thermo Fisher Scientific). Compound, reagents and antibody dispensing as well as washes were performed with a CyBio liquid handler (Analytik). Cells were pre-incubated with a small molecule or up to 1% DMSO for 2 h before fixation. HEK293, 3T3 or Beas2B cells were treated with 0.6M/0.2M/0.2M D-Sorbitol/PBS (Sigma) for 20/40/40 min. respectively, before fixation. Media was removed and wells were immediately fixed with 150 μl per well of 3.7% formaldehyde/PBS fixing solution for 20 min. Formaldehyde was then aspired and cells were permeabilized with 150 μl of 0.5% Triton x-100/PBS solution for 10 min. After aspiration cells were washed with ice-cold methanol and stored at −20° C., for 10 min. Methanol was aspired and cells were blocked with 150 μl blocking buffer (LICOR) for 90 min. Primary antibody Phospho-SAPK/JNK T183/Y185 (CST; 9251S) was diluted 1:1000 in blocking buffer and was applied 50 μl per well, except control wells to which only blocking buffer was applied, O.N. (16 h) at 4° C. with mild shaking. Primary antibody was aspired, wells were washed with 150 μl 0.1% Tween20/PBS (Sigma) washing solution three times for 7 min. IRDye® 800CW Goat anti-Rabbit IgG Secondary antibody (LICOR) was then diluted 1:1200 in blocking buffer with 50 μl applied per well on control wells only (no CellTag control), then CellTag700 (1:2000) was added to the solution and 50 μl were added to all experiment wells, for 1 h at room temperature. Wells were aspired and washed again with 150 μl 0.1% Tween20/PBS (Sigma) washing solution three times for 7 min. plate was dried and scanned with Odyssey CLx imaging system at 700 nm and 800 nm (Licor). Wells signals were analyzed with Odyssey software. The signal was normalized by the CellTag700 signal.
To rapidly assess the cellular activity (EC50) with full dose response curves of the MKK7 covalent inhibitors, according to some embodiments of the present invention, an in-cell western assay was adapted to a 384 well plate format over traditional western blot, and monitored phospho-JNK (pJNK) levels in response to osmotic shock. We first characterized the dynamics of pJNK in response to sorbitol. Sufficient dynamic range for pJNK is achieved at 20 minutes in HEK293 cells and at 40 minutes in 3T3 and Beas2B cells. The compound's activity was assessed by pre-treating cells with either compound or DMSO for 2 hours, followed by Sorbitol stimulation. The response of pJNK, and its substrates, pc-Jun and pATF2, was measured, as well as pP38, which is a substrate of MKK4 but not MKK7, and pERK in HEK293 cells, and the results are presented in Table 5 below.

CLK1, sequence (P49759 whole entry): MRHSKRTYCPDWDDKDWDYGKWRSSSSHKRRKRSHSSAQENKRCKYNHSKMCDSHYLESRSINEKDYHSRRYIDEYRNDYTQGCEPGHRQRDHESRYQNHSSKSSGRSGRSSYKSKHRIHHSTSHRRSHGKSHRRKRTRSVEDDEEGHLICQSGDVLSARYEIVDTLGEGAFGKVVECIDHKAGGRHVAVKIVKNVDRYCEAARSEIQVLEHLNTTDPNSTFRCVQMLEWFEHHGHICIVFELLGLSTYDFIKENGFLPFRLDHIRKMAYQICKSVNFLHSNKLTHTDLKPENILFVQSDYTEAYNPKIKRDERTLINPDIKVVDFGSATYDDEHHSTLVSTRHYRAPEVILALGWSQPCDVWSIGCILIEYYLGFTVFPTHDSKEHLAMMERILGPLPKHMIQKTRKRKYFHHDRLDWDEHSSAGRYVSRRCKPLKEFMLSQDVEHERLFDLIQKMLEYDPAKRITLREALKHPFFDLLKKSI
PRKCE (PKC epsilon), sequence (Q02156 whole entry): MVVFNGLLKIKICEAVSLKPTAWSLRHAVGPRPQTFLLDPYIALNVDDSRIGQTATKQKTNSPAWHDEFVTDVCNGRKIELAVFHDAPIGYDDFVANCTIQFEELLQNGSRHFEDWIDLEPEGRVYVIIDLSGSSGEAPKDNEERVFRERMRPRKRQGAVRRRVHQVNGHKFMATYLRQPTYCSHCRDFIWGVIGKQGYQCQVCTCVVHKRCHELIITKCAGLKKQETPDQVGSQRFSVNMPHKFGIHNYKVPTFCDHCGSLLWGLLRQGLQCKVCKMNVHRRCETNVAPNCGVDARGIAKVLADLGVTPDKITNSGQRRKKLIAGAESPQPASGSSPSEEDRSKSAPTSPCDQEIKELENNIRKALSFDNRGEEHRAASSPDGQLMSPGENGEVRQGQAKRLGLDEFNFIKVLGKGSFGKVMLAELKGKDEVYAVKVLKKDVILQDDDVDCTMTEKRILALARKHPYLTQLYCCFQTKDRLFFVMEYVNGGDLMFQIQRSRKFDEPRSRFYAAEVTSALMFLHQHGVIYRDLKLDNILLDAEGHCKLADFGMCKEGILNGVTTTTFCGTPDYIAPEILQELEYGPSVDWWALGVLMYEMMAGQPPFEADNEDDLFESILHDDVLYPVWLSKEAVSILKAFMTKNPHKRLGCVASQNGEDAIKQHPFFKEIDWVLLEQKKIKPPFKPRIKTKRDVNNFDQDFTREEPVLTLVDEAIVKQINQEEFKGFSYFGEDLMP
FLT4 (VEGFR3), sequence (P35916 25-1363): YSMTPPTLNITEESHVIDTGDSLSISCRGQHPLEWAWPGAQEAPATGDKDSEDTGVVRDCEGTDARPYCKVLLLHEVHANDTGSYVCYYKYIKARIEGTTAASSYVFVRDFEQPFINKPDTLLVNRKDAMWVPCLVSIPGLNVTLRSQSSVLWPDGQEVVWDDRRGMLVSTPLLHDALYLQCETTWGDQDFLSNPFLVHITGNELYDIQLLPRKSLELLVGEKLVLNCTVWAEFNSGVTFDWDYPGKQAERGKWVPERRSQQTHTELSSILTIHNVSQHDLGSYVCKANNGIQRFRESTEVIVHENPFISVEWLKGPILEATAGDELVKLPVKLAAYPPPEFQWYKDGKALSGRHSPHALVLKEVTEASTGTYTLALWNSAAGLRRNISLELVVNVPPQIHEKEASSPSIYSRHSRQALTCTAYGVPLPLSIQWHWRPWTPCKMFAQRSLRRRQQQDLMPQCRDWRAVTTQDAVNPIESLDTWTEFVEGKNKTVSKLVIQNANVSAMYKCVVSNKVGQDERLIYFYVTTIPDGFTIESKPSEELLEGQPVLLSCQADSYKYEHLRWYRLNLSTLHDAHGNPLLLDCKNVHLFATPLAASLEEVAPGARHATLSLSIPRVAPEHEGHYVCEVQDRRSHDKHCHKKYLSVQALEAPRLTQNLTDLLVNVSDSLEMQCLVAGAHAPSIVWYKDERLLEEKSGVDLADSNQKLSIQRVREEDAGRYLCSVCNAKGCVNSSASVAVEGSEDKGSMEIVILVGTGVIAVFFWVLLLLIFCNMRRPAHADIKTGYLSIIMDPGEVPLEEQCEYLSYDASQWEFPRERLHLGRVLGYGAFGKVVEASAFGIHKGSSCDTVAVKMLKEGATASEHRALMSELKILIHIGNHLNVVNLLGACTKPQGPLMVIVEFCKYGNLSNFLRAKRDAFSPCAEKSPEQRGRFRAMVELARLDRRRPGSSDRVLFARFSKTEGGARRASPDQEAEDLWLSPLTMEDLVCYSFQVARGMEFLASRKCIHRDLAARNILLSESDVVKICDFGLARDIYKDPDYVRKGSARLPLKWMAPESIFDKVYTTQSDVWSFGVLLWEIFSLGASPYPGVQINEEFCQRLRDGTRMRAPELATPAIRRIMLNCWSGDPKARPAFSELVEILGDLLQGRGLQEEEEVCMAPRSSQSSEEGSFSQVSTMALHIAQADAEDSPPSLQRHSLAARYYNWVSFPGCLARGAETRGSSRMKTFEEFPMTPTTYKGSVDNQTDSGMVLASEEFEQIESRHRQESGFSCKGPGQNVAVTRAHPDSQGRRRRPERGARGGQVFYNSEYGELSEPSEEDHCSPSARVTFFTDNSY
TEK (Tie2), sequence (Q02763 23-1124): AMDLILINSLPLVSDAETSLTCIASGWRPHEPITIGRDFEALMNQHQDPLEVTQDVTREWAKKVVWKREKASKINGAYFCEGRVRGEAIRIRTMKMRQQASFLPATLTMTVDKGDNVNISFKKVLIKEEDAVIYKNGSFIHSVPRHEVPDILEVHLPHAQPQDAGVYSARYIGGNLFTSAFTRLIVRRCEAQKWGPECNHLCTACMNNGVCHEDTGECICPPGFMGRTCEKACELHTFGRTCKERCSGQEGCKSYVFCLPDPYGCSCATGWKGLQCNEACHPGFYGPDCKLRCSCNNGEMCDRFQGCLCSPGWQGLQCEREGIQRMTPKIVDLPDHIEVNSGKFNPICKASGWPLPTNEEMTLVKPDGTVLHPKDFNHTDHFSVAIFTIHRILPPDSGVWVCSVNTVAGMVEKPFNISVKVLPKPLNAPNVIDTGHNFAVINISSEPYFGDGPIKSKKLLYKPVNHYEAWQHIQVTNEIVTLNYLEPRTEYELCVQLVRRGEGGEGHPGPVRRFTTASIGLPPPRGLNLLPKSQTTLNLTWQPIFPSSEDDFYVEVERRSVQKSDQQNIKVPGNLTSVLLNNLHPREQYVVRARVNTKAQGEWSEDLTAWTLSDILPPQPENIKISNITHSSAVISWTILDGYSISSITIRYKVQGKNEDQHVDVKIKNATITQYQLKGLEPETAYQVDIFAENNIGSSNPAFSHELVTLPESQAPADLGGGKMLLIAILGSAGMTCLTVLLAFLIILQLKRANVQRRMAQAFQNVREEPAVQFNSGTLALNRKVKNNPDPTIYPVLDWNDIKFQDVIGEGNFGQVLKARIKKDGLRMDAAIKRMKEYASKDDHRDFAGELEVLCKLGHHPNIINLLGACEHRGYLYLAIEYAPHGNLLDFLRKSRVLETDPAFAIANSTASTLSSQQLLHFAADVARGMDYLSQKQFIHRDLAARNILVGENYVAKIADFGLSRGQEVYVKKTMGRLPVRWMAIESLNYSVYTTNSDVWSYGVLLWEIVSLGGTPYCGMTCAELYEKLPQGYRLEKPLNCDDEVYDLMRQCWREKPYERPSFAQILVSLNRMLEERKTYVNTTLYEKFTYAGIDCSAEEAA
MARK1 (MARK), sequence (Q9P0L2 whole entry): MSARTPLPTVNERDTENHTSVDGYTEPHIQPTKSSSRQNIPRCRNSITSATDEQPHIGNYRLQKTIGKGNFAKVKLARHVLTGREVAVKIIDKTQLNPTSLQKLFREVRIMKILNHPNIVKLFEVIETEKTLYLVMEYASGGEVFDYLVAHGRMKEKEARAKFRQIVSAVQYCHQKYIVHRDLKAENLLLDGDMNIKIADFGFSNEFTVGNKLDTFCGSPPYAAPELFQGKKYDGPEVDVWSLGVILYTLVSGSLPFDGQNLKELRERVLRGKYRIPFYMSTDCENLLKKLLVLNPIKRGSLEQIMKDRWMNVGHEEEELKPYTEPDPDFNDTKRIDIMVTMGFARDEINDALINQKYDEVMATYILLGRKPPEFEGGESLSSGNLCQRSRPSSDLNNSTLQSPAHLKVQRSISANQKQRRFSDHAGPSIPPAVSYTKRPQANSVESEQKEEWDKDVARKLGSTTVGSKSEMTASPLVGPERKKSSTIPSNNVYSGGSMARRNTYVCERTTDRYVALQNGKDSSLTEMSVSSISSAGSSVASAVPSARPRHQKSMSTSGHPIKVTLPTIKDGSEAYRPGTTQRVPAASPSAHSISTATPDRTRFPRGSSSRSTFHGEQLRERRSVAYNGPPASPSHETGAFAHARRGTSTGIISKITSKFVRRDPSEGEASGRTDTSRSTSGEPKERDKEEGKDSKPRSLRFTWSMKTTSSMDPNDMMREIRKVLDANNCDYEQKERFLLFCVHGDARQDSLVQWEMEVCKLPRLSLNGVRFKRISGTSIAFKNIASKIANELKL

Row | inhibition at 1 µM (FLT4 (VEGFR3)) | covalent labeling (MKK7; 1 hour) | covalent labeling (MKK7; 16 hours) | % remaining @ 40 min [1] | half-life [1] | % remaining @ 40 min [2] | half-life [2] | inhibition at 1 µM (CLK1) | inhibition at 1 µM (TEK (Tie2)) | inhibition at 1 µM (MARK1 (MARK)) | inhibition at 1 µM (BTK) | inhibition at 1 µM (DCAMKL2 (DCK2)) | inhibition at 1 µM [3] | inhibition at 1 µM (EGFR (ErbB1)) | inhibition at 1 µM (PRKCE (PKC epsilon)) | Compound | pEC50 (pJNK in HEK293 cells; HEK293, ICW) | pEC50 (pJNK in HEK293 cells; Homo sapiens, HEK293, HEK293, ICW)
1 | -2% | 78.14% | 96.29% | 0% | < 5 min | 0% | < 5 min | 14% | 25% | 14% | 11% | -2% | -6% | -6% | 20% | C=CC(=O)Nc1cccc(-c2n[nH]c3ccccc23)c1 [GO32] | 5.69 | 
2 | 0% | 59.58% | 92.87% | 0% | < 5 min | 1% | 6 min | 2% | 1% | 4% | 15% | -1% | -19% | -4% | 21% | C=CC(=O)Nc1cccc(-c2n[nH]c3cc(C)ccc23)c1 [GO80] | 5.89 and 6.10 | 5.90
3 |  | 65.16% | 95.15% | 0% | < 5 min | 0% | < 5 min |  |  |  |  |  |  |  |  | C=CC(=O)Nc1cccc(-c2n[nH]c3c2CCCC3)c1 [GO4] | 5.28 | 
